Data reported in patent US9132134B2, “Methods for treating GI tract disorders” (Neurogastrx, Inc., priority 2012, dated 2015).
Values joined by “and” are separate entries in the source; they are usually repeats but may differ in a detail not shown here. Equal values may be shown once.

How the values were obtained:
[1] = target: dopamine D2 receptor (Homo sapiens (Human), UniProt P14416); assay: Radioligand binding assay, [3H]spiperone, membranes of D2 receptor expressing cells; details: [3H]spiperone competition; read-out: Radioligand Binding Affinity (Ki, nM) D2
[2] = target: D3 (Homo sapiens (Human), UniProt P35462); assay: Radioligand binding affinity, D3
[3] = target: 5HT2; assay: Radioligand binding affinity, 5HT2
[4] = test system: canine cardiac action potentials; assay: Canine cardiac action potentials by electrocardiography and telemetry; format: in vivo; details: dogs; for QTc intervals as compared to vehicle-administered animals: oral gavage
Source text: Surgical Implantation of the Telemetry Device and ECG Leads. Anesthesia is introduced to dogs. Balanced gaseous anesthesia is used throughout the surgical procedure. Once anesthetized, animals are shaved and surgically scrubbed, encompassing surgical sites of the right inguinal area, chest and right lateral abdomen. Throughout the surgical procedure, animals are monitored for continuous assessment of vital signs. An incision is made along the right medial thigh and the femoral artery exposed by blunt dissection. Another incision is made in the lateral lumbar area cranial to the iliac crest for a tunneling needle to be passed subcutaneously from the incision on the medial thigh to the lumbar incision. A blood pressure catheter is passed through the needle from the lumbar incision and the needle removed. The femoral artery is ligated distally and incised to insert a catheter that is advanced until the tip resided in the femoral artery/abdominal aorta. The catheter is then secured by ligation. The incision in the lumbar area is enlarged and a subcutaneous pocket created in the left dorsal lumbar area to hold the transmitter body. The transmitter (e.g., Data Sciences International, St Paul, Minn., USA) is inserted into the subcutaneous pocket and secured body. Electrocardiography (ECG) leads are positioned. The incision is closed. Postoperative recovery lasts, e.g., about 2 weeks during which supplemental analgesics/antibiotics are administered as needed. Once the postoperative recovery period is complete, the animal is examined for study acceptability by the staff veterinarian and the implanted transmitter signal verified.
Study Design. […] ECGs, heart rate and arterial blood pressure data are recorded 1 hour prior to and then continuously for at least 6 hours following compound and/or vehicle administration. A blood sample for determination of compound plasma concentrations is collected from all subjects at approximately 6 h post-dose.
ECG Analysis. An ECG waveform morphology assessment, for the entire monitoring period, is completed for each dog by, e.g., a safety pharmacologist or veterinarian cardiologist. Standard ECG intervals (PR, RR, QRS and QT) are automatically measured by the data acquisition system and reported as, e.g., 10 min averages. The signals are collected with Data Sciences International Systems hardware. PR and QT manual overreads are conducted as appropriate. The manual measurements are completed from 50 mm s^−1 tracings at 30 min intervals. A mean of the three waveforms per time point are reported. QT intervals are corrected for heart rate (QTc) values by, e.g., using the formula by Funck-Bretano and Jaillon (1993).
Statistical Analysis. […] Dose-level averages (and accompanying standard deviation (s.d.) of these baseline-adjusted 10 min averages are calculated across study animals. ANOVA (e.g., repeated measures ANOVA) are applied to these baseline-adjusted averages. Pairwise t-tests are applied within the ANOVA to identify the presence of significant differences of the dose levels relative to vehicle. These t-tests are performed at a 0.05/2=0.025 significance level, so that the overall error rate across the comparisons in a given interval are not higher than 0.05. ECG interval data (reported at 30 min intervals) are analyzed using, e.g., repeated-measures ANOVA techniques similar to the systemic blood pressure and heart rate data described above.

[5] = target: 5HT3 (Homo sapiens (Human), UniProt P46098); assay: Radioligand binding affinity, 5HT3
[6] = Therapeutic plasma concentrations
[7] = target: H1 (Homo sapiens (Human), UniProt P35367); assay: Radioligand binding affinity, H1
[8] = target: α1; assay: Radioligand binding affinity, α1
[9] = target: 5HT4 (Homo sapiens (Human), UniProt Q13639); assay: Radioligand binding affinity, 5HT4
[10] = target: hERG channel (Homo sapiens (Human), UniProt Q12809); assay: hERG voltage clamp assay in hERG-expressing cultured cells; format: cell-based; details: for inhibition at 0.1 µM / inhibition at 1 µM / inhibition at 10 µM: human, hERG-expressing cultured cells, read-out: hERG Activity (% Inhibition of Tail Current); for inhibition at 0.1 µM: 100 nM; for IC50: read-out: concentration necessary to inhibit 50% of the tail currents mediated by hERG channels
[11] = test system: gastric motility in canines; assay: Antral manometry (gastric motility) in canines; format: in vivo, canine; details: for motor dysfunction: canines
Method: Animals were fed an ad libitum chow diet (LabDiet®). After an overnight fast, the dogs were anesthetized with Pentothal (sodium thiopental, 11 mg/kg IV; Abbott Laboratories, North Chicago, Ill.) and maintained on 2-4% isoflurane (Abbott Laboratories) in oxygen (1 L/min) carrier gases delivered from a ventilator after endotracheal intubation. A cannula was placed in the jejunum 20 cm distal to the pylorus for the assessment of antral motility. Dogs were allowed to recover in their individual cages for 2 weeks. All experiments were performed after the dogs were completed recovered from the surgical procedure. The study was performed according to the National Institutes of Health Guidelines on the use of laboratory animals and approved by the Animal Care and Use Committee of the University of Texas Medical Branch at Galveston, Tex. To investigate the effect of the drugs on antral manometry, the study of each drug dose was done on three randomized sessions on separate days following the consumption of one can of solid dog food: 1) a Control session: In which animals received the vehicle only; 2) Dose I session: in which the lower dose of the drug was used; and 3) Dose II session: in which the higher dose of the drug was used (please refer to table for drug doses). Drug administration was performed according to Table 4, below. [table] Antral manometry was performed as follows. Following an overnight fast, an intraluminal water-perfused manometry catheter was inserted into the antrum through the jejunal cannula. Antral manometry recording was initiated after the consumption of one can of solid food and continued for 3 hours. The catheter contained 3 manometric sensors at a 1 cm interval. Dogs were given 10 minutes of accommodation, prior to the start of the recording. For data analysis, motility index (MI), defined as the integrated area (area under curve—AUC) between baseline and contractions per hour, was calculated. For statistical analysis, the Student's t-test was used for assessment of individual differences between groups (High dose, low dose of each drug) compared to control—Microsoft® Excel 2002). All values are expressed as mean±SEM. Significance was considered when p value was ≦0.05.

[12] = test system: gastric emptying in rats; assay: Solid gastric emptying in rats; format: in vivo, rat (Sprague-Dawley); details: preliminary
[13] = test system: gastric emptying in rats; assay: Solid gastric emptying in rats; format: in vivo, rat (Sprague-Dawley)
Method: Animals: […] The animals received a standard laboratory rat chow and tap water ad libitum. The rats were around 400 g at 14 weeks age when used in gastric emptying study. Drugs: S-Carbidopa was purchased from Sigma (#: C1335). Stock solution of S-Carbidopa was prepared at 5 mg/ml using DMSO as solvent. 80 μl stock solution was further diluted into 1 ml distilled water to make 0.4 mg/ml. The effect of S-Carbidopa (1 mg/kg) on solid gastric emptying was studied. Procedures: Male SD rats were involved in this study. Rats were fasted in cages with metal wired mesh for 24 hours with free access to water; S-carbidopa (1 mg/kg) was administered to the rats by oral gavage. Control rats were not administered S-carbidopa. 15 minutes following administration, rats were given access to 2 g of rat chow pellets for ten minutes. All rats completely ingested the chow within the 10 minute time frame. Rats were sacrificed by sodium pentobarbital (100 mg/kg) overdose 90 min after feeding. The stomach was surgically isolated and removed. Gastric contents were recovered from the stomach, air dried for 48 hours and then weighed. Solid gastric emptying was calculated according to the following formula: Gastric emptying (%)=[1−(dried gastric content in g)/2 g]×100. All values are expressed as mean±SEM.

Chain of hERG channel (Q12809 whole entry): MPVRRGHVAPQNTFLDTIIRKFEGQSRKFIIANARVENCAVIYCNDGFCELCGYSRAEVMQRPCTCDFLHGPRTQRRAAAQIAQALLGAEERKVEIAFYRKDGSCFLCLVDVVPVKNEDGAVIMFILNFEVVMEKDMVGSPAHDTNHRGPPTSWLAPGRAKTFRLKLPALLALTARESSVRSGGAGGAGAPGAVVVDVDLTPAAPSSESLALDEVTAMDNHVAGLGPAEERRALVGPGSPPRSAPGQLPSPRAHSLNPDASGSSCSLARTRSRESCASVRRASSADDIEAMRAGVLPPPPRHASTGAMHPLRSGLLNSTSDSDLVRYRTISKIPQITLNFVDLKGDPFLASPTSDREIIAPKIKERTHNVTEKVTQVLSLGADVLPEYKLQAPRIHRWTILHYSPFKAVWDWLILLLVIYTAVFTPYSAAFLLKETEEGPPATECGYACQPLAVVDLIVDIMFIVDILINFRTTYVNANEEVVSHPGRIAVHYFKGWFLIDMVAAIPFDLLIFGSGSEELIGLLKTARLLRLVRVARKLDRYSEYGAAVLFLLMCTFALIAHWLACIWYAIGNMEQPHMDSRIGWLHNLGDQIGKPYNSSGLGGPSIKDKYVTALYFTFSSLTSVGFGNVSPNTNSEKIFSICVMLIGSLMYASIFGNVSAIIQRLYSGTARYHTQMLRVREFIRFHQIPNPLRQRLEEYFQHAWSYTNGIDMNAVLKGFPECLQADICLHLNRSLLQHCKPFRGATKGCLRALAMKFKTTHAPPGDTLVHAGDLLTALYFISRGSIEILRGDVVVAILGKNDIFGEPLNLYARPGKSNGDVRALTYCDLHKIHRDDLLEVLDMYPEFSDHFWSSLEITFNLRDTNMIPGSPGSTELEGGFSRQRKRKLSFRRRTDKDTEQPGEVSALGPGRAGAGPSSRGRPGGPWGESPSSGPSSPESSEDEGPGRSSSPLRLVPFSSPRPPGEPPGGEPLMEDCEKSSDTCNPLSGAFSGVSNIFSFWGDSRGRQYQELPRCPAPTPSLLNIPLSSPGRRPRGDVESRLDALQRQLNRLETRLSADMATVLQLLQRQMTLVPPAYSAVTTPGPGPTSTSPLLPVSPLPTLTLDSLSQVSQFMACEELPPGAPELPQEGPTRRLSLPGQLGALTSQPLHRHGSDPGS
Chain of D3 (P35462 whole entry): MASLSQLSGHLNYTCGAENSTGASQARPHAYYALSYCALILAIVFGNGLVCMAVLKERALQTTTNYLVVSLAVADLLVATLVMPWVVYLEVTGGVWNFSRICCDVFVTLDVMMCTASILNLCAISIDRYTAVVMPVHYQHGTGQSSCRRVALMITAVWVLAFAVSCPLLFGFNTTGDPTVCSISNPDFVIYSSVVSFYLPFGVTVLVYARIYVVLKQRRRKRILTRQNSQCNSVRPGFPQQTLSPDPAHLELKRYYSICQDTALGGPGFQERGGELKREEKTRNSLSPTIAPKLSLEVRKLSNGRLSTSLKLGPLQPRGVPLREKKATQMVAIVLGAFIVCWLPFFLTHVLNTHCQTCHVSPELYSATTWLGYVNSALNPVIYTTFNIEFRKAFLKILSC
Chain of dopamine D2 receptor (P14416 whole entry, species assumed): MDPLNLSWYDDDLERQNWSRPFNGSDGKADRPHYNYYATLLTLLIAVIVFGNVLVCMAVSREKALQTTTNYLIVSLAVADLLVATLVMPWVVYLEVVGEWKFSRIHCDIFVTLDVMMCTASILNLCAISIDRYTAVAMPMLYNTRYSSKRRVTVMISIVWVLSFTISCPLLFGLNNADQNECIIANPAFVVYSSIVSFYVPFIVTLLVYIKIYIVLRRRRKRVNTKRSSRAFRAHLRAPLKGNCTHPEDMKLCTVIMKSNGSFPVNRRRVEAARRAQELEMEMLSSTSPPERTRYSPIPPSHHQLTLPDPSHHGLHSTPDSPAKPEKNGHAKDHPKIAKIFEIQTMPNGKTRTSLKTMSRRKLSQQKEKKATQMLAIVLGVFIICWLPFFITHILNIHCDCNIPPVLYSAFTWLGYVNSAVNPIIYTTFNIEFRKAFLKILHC
Chain of 5HT3 (P46098 24-478, species assumed): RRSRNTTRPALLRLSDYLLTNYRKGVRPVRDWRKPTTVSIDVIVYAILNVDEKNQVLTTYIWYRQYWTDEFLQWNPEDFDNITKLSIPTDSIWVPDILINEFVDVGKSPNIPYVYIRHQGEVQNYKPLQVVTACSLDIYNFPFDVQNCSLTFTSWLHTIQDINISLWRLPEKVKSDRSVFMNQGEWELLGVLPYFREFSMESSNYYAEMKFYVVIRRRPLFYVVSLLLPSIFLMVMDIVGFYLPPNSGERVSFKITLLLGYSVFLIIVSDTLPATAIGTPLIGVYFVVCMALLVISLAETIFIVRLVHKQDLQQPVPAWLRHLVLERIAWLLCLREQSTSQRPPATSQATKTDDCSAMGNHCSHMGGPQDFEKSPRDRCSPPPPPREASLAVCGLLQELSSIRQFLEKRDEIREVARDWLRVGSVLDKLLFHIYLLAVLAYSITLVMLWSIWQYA
Chain of 5HT4 (Q13639 whole entry, species assumed): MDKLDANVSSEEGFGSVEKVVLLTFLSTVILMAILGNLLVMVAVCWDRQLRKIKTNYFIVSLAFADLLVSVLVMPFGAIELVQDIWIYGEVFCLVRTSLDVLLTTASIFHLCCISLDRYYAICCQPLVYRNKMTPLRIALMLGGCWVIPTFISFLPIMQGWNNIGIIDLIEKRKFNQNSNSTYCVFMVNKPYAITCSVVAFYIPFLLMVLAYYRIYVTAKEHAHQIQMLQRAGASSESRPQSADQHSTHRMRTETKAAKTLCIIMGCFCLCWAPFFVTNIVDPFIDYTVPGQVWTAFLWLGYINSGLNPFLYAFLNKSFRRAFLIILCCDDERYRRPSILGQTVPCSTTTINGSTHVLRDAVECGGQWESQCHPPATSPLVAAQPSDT
Chain of H1 (P35367 whole entry): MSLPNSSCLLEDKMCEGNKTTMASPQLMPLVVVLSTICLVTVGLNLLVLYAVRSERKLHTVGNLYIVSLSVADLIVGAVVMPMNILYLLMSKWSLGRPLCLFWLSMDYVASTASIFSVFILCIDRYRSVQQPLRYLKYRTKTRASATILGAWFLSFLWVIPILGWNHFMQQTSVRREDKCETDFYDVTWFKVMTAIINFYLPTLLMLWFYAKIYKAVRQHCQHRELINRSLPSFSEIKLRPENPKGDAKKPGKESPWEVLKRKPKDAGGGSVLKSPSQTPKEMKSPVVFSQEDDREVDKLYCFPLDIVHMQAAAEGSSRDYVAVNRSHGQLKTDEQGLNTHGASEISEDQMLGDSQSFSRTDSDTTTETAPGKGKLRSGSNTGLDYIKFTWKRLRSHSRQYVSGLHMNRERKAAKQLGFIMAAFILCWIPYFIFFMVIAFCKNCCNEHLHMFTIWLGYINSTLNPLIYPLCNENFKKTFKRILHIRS

## CCN(CC)CCNC(=O)c1cc(Cl)c(N)cc1OC [Metoclopramide]
[1]
  Ki: 64 nM
[2]
  Ki: 16 nM

## CS(=O)(=O)c1ccc2c(c1)N(CCCN1CCC(C(=O)O)CC1)c1ccccc1S2 [Metopimazine acid]
[3]
  Ki: 370 nM
[4]
  QTc intervals as compared to vehicle-administered animals: no significant increases
[5]
  Radioligand Binding Affinity (Ki, nM) 5HT3: Inactive
[6]
  Therapeutic plasma concentrations: 300 to 900 nM
[7]
  Ki: 140 nM
[8]
  Ki: 210 nM
[9]
  Radioligand Binding Affinity (Ki, nM) 5HT4: Inactive
[10]
  inhibition at 0.1 µM: 0.2%
  inhibition at 1 µM: 4%
  inhibition at 10 µM: 11%
  IC50: > 10000 nM
[2]
  Ki: > 100 nM

## CS(=O)(=O)c1ccc2c(c1)N(CCCN1CCC(C(N)=O)CC1)c1ccccc1S2 [Metopimazine, 1-[3-[2-(methylsulfonyl)-10H-phenothiazin-10-yl]propyl]-piperidine-4-carboxamide]
[3]
  Ki: 15 nM
[4]
  QTc intervals as compared to vehicle-administered animals: no significant increases
[5]
  Radioligand Binding Affinity (Ki, nM) 5HT3: Inactive
[11]
  motor dysfunction: no motor dysfunction was observered
[1]
  Ki: 0.07 nM
[8]
  Ki: 1.9 nM
[12]; 3 mg/kg
  increase in gastric emptying as compared to vehicle control: about 40%
[12]; 10 mg/kg
  increase in gastric emptying as compared to vehicle control: about 18%
[12]; pooling the 3 mg/kg and 10 mg/kg doses
  increase in gastric emptying as compared to vehicle control: about 20%
[9]
  Radioligand Binding Affinity (Ki, nM) 5HT4: Inactive
[10]
  inhibition at 0.1 µM: 4.5%
  inhibition at 1 µM: 32%
  inhibition at 10 µM: 82%
  IC50: ~3000 nM
[2]
  Ki: 0.61 nM

## C[C@@](Cc1ccc(O)c(O)c1)(NN)C(=O)O [S-Carbidopa, (2S)-3-(3,4-dihydroxyphenyl)-2-hydrazino-2-methylpropanoic acid]
[4]
  QTc intervals as compared to vehicle-administered animals: no significant increases
[11]; 1 mg/kg IV, 15 min prior to meal, vs control, p=0.05
  motility index (MI), antral manometry: robustly increased MI in all three of the channels tested
[11]
  motor dysfunction: no motor dysfunction was observered
[13]; 1 mg/kg oral gavage, 90 min after feeding
  Gastric emptying (%), mean of the 3 rats: 68.2%
[13]; 1 mg/kg, rats, initial results
  solid gastric emptying compared to control rats: improves solid gastric emptying
[13]; individual rat, 1 mg/kg oral gavage, 90 min after feeding
  Gastric emptying (%): 55% and 62% and 87.5%
[13]; individual rat, 1 mg/kg oral gavage, dried gastric content (g) 90 min after 2 g chow
  stomach content: 0.9 and 0.76 and 0.25
[13]; rats
  motor dysfunction: no motor dysfunction was observed

## CN(CCOc1ccc(NS(C)(=O)=O)cc1)CCc1ccc(NS(C)(=O)=O)cc1 [dofetilide]
[4]; 0.3 mg/kg oral gavage
  incidence of premature ventricular contractions, T-wave abnormalities, and right bundle branch block: increases
[4]; 0.3 mg/kg oral gavage, post-dose period of 1-6 hours
  QTc intervals: increased

## Cl.NCCc1ccc(O)c(O)c1 [dopamine hydrochloride, Dopamine hydrochloride]
[11]; 50 mg/canine IV, immediately before meal, p=0.06
  motility index (MI), antral manometry: decreased MI in all channels
